# Experimental data: patent US8124056B2, “High throughput genetic screening of lipid and cholesterol processing using fluorescent compounds” (Trustees of the University of Pennsylvania, priority 2000, dated 2012)
# How the values were obtained:
# 5 dpf zebrafish larvae = assay: Gall bladder fluorescence in 5 dpf zebrafish larvae soaked in fluorescent lipids; conditions: 5 dpf larvae soaked in the lipid
# Method: A. Bright-field image of a 5 dpf larva soaked in PED6 (3 μg/ml, 2 hr). B. Corresponding fluorescent image, with intestinal (arrow) and gall bladder (arrowhead) labeling. C. Larva soaked in BODIPY-C5-PC (0.2 μg/ml).
# To determine whether these reagents could be used to study organ specific PLA2 activity, the quenched fluorescent lipids were administered to zebrafish larvae at 5 dpf, a developmental stage when the major larval organ systems function (FIG. 2).
# First, to establish that PED6 is swallowed by the larvae, an unquenched fluorescent lipid was administered to 5 dpf larvae, and the appearance of labeled lipid in the pharynx and intestinal lumen before the gallbladder was noted (FIGS. 3C & 4). […] Dissected adult gall bladders were lysed in embryo medium (EM) (30 μl) containing BODIPY-FL-C5-PC (0.1 μg) to release bile. PLA2 activity was determined as described (1). Measurements were compared with activity of bile-depleted gallbladders. […] Fluorescent images were captured over 1 hr using a Zeiss Axiocam 2 mounted on a Leica MZFL-III.
# mice = assay: Biliary fluorescence in mice given PED6 by gavage; assay type: in vivo, mouse; conditions: PED6 1 μg by gavage, t=30 min
# Method: FIG. 5. Lipid processing. […] C. Mouse digestive organs. D. Gall bladder fluorescence after processing (t=30 min) of PED6 (1 μg), administered by gavage. Symbols: gb, ball bladder; d, common bile duct; lv, liver. Scale bars, 1.0 mm (C and D), 200 μm (other images).
Compound,time to gall bladder fluorescence after ingesting the lipid (5 dpf zebrafish larvae) [min],biliary (gall bladder) fluorescence after gavage (mice)
"CCCCCCCCCCCCCCCC(=O)OC[C@H](COP(=O)(O)OCCNC(=O)CCCCCNc1ccc([N+](=O)[O-])cc1[N+](=O)[O-])OC(=O)CCCCC1=[N+]2C(=Cc3c(C)cc(C)n3[B-]2(F)F)C=C1 [PED6, N-((6-(2,4-dinitrophenyl)amino)hexanoyl)-1-palmitoyl-2-BODIPY-FL-pentanoyl-sn-glycero-3-phosphoethanolamine]",15 to 20,rapid appearance of biliary fluorescence
nitrobenzoxadiazole cholesterol [NDB cholesterol],≤ 30,
